In this assay the test system is Dd2 strain of P. falciparum. Description: Activity against the Dd2 strain of P. falciparum (SYBR Green I, 72-h incubation). It is filed as cell-based. The settings on record: Plasmodium falciparum, DD2, 72 h, read-out: EC^50 Dd2. A digest of the protocol:
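SYBR Green I signal (ex 485, em 530 nm) measured growth, read after 24 h dark staining in saponin/Triton lysis buffer. Before that, compound-exposed Dd2 cultures (1% parasitemia, 1.0% hematocrit, 0.125% DMSO) grew 72 h at 37° C in low-oxygen gas. Background control: 20 μM mefloquine.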
With `COc1ccc2c3c([nH]c2c1)[C@H](CO)N(C(C)=O)CC31CCN(C(=O)Nc2ccccc2C(F)(F)F)CC1` [Compound 57, (R)-2′-acetyl-1′-(hydroxymethyl)-7′-methoxy-N-(2-(trifluoromethyl)phenyl)-1′,2′,3′,9′-tetrahydrospiro[piperidine-4,4′-pyrido[3,4-b]indole]-1-carboxamide], the EC50 lay within 0.577 to 1.21 µM.
The value for `COc1ccc2c3c([nH]c2c1)[C@H](CO)N(C(C)=O)CC31CCN(C(=O)Nc2ccc(F)c(F)c2)CC1` [Compound 58, (R)-2′-acetyl-N-(3,4-difluorophenyl)-1′-(hydroxymethyl)-7′-methoxy-1′,2′,3′,9′-tetrahydrospiro[piperidine-4,4′-pyrido[3,4-b]indole]-1-carboxamide] was 1.44 to 1.6 µM.
With `COc1ccc2c3c([nH]c2c1)[C@H](CO)N(C(C)=O)CC31CCN(S(=O)(=O)c2ccccc2F)CC1` [Compound 59, (R)-1-(1-((2-fluorophenyl)sulfonyl)-1′-(hydroxymethyl)-7′-methoxyspiro[piperidine-4,4′-pyrido[3,4-b]indol]-2′(1′H,3′H,9′H)-yl)ethanone] the figure was 1.46 to 2.89 µM; with `CCN1CC2(CCN(C(=O)Nc3ccccc3F)CC2)c2c([nH]c3cc(OC)ccc23)[C@@H]1CO` [Compound 60, (R)-2′-ethyl-N-(2-fluorophenyl)-1′-(hydroxymethyl)-7′-methoxy-1′,2′,3′,9′-tetrahydrospiro [piperidine-4,4′-pyrido[3,4-b]indole]-1-carboxamide], 4.61 to 5.79 µM.
With `COc1ccc2c3c([nH]c2c1)[C@H](CO)N(C)CC31CCN(C(=O)Nc2ccccc2F)CC1` [Compound 61, (R)-N-(2-fluorophenyl)-1′-(hydroxymethyl)-7′-methoxy-2′-methyl-1′,2′,3′,9′-tetrahydrospiro[piperidine-4,4′-pyrido[3,4-b]indole]-1-carboxamide] the figure was 3.78 to 4.12 µM; with `COc1ccc2c3c([nH]c2c1)[C@H](CO)N(CC(F)(F)F)CC31CCN(C(=O)Nc2ccccc2F)CC1` [Compound 62, (R)-N-(2-fluorophenyl)-1′-(hydroxymethyl)-7′-methoxy-2′-(2,2,2-trifluoroethyl)-1′,2′,3′,9′-tetrahydrospiro[piperidine-4,4′-pyrido[3,4-b]indole]-1-carboxamide], 4.49 to 9.48 µM.
As for `COc1ccc2c3c([nH]c2c1)[C@H](CO)N(C(C)=O)CC31CCN(C(=O)N(C)c2ccccc2F)CC1` [Compound 63, (R)-2′-acetyl-N-(2-fluorophenyl)-1′-(hydroxymethyl)-7′-methoxy-N-methyl-1′,2′,3′,9′-tetrahydrospiro[piperidine-4,4′-pyrido[3,4-b]indole]-1-carboxamide], the EC50 is 1.7 to 2.92 µM.
The value for `COCCOCOC[C@H]1c2[nH]c3cc(OC)ccc3c2C2(CCN(C(=O)Nc3ccccc3F)CC2)CN1C(C)=O` [Compound 64, (R)-2′-acetyl-N-(2-fluorophenyl)-7′-methoxy-1′-(((2-methoxyethoxy)methoxy)methyl)-1′,2′,3′,9′-tetrahydrospiro[piperidine-4,4′-pyrido[3,4-b]indole]-1-carboxamide] was 3.62 µM; that for `COc1ccc2c3c([nH]c2c1)[C@H](CN1CCOCC1)N(C(C)=O)CC31CCN(C(=O)Nc2ccccc2F)CC1` [Compound 65, (S)-2′-acetyl-N-(2-fluorophenyl)-7′-methoxy-1′-(morpholinomethyl)-1′,2′,3′,9′-tetrahydrospiro[piperidine-4,4′-pyrido[3,4-b]indole]-1-carboxamide] was 0.882 µM.
The value for `COc1ccc(COC[C@H]2c3[nH]c4cc(OC)ccc4c3C3(CCN(C(=O)Nc4ccccc4F)CC3)CN2C(C)=O)cc1` [Compound 66, (R)-2′-acetyl-N-(2-fluorophenyl)-7′-methoxy-1′-(((4-methoxybenzyl)oxy)methyl)-1′,2′,3′,9′-tetrahydrospiro[piperidine-4,4′-pyrido[3,4-b]indole]-1-carboxamide] was 0.422 µM; that for `COCOC[C@H]1c2[nH]c3cc(OC)ccc3c2C2(CCN(C(=O)Nc3ccccc3F)CC2)CN1C(C)=O` [Compound 67, (R)-2′-acetyl-N-(2-fluorophenyl)-7′-methoxy-1′-((methoxymethoxy)methyl)-1′,2′,3′,9′-tetrahydrospiro [piperidine-4,4′-pyrido[3,4-b]indole]-1-carboxamide] was 3.04 µM; that for `COc1ccc2c3c([nH]c2c1)[C@H](CO)N(C(C)=O)CC31CCN(C(=O)Nc2ccccn2)CC1` [Compound 68, (R)-2′-acety1-1′-(hydroxymethyl)-7′-methoxy-N-(pyridin-2-yl)-1′,2′,3′,9′-tetrahydrospiro[piperidine-4,4′-pyrido[3,4-b]indole]-1-carboxamide] was 0.918 to 2.27 µM.
`COC[C@H]1c2[nH]c3cc(OC)ccc3c2C2(CCN(C(=O)Nc3ccccc3F)CC2)CN1C(C)=O` [Compound 69, (R)-2′-acetyl-N-(2-fluorophenyl)-7′-methoxy-1′-(methoxymethyl)-1′,2′,3′,9′-tetrahydrospiro [piperidine-4,4′-pyrido[3,4-b]indole]-1-carboxamide]: the EC50 worked out at 9.05 µM.
Regarding `COc1ccc2c3c([nH]c2c1)[C@H](CO)N(CCCc1ccccc1)CC31CCN(C(=O)Nc2ccccc2F)CC1` [Compound 71, (R)-N-(2-fluorophenyl)-1′-(hydroxymethyl)-7′-methoxy-2′-(3-phenylpropy1)-1′,2′,3′,9′-tetrahydrospiro[piperidine-4,4′-pyrido[3,4-b]indole]-1-carboxamide], the EC50 came out at 7.24 µM.
`COc1ccc2c3c([nH]c2c1)[C@H](CCO)N(C(C)=O)CC31CCN(C(=O)Nc2ccccc2F)CC1` [Compound 73, (S)-2′-acetyl-N-(2-fluorophenyl)-1′-(2-hydroxyethyl)-7′-methoxy-1′,2′,3′,9′-tetrahydrospiro [piperidine-4,4′-pyrido[3,4-b]indole]-1-carboxamide]: the EC50 amounted to 0.468 µM.
The value for `COc1ccc2c3c([nH]c2c1)[C@H](CC(F)(F)F)N(C(C)=O)CC31CCN(C(=O)Nc2ccccc2F)CC1` [Compound 74, (S)-2′-acetyl-N-(2-fluorophenyl)-7′-methoxy-1′-(2,2,2-trifluoroethyl)-1′,2′,3′,9′-tetrahydrospiro[piperidine-4,4′-pyrido[3,4-b]indole]-1-carboxamide] was 0.03 to 0.13 µM; that for `COc1ccc2c3c([nH]c2c1)[C@H](CO)N(C(C)=O)CC31CCN(c2nc3ccccc3o2)CC1` [Compound 77, (R)-1-(1-(benzo[d]oxazol-2-yl)-1′-(hydroxymethyl)-7′-methoxyspiro [piperidine-4,4′-pyrido[3,4-b]indol]-2′(1′H,3′H,9′H)-yl)ethanone] was 8.5 µM; that for `COc1ccc2c3c([nH]c2c1)[C@H](CO)N(Cc1cccc(F)c1)CC31CCN(Cc2ccccn2)CC1` [Compound 78, (R)-(2′-(3-fluorobenzyl)-7′-methoxy-1-(pyridin-2-ylmethyl)-1′,2′,3′,9′-tetrahydrospiro [piperidine-4,4′-pyrido[3,4-b]indol]-1′-yl)methanol] was 0.905 µM.
The value for `COc1ccc2c3c(n(C)c2c1)[C@H](CO)NCC31CCN(Cc2ccc(-c3ccccn3)cc2)CC1` [Compound 79, (R)-(7′-methoxy-9′-methyl-1-(4-(pyridin-2-yl)benzyl)-1′,2′,3′,9′-tetrahydrospiro [piperidine-4,4′-pyrido[3,4-b]indol]-1′-yl)methanol] was 0.135 µM; that for `COc1ccc2c3c([nH]c2c1)[C@H](CO)N(C(=O)Nc1ccc(F)cc1)CC31CCN(S(=O)(=O)c2ccccc2)CC1` [Compound 80, (R)-N-(4-fluorophenyl)-1′-(hydroxymethyl)-7′-methoxy-1-(phenylsulfonyl)-3′,9′-dihydrospiro[piperidine-4,4′-pyrido[3,4-b]indole]-2′(1′H)-carboxamide] was 1.3 µM; that for `COc1ccc2c3c(n(C)c2c1)[C@H](CO)N(Cc1ccc2c(c1)OCO2)CC31CN(C(=O)c2ccc3c(c2)OCO3)C1` [Compound 81, (R)-benzo[d][1,3] dioxol-5-y1(2′-(benzo[d][1,3]dioxol-5-ylmethyl)-1′-(hydroxymethyl)-7′-methoxy-9′-methyl-1′,2′,3′,9′-tetrahydrospiro[azetidine-3,4′-pyrido[3,4-b]indol]-1-yl)methanone] was 0.13 µM.
The value for `COc1ccc2c3c([nH]c2c1)[C@@H](CO)N(Cc1cccc(F)c1)CC31CCN(Cc2ccccn2)CC1` [Compound 82, (S)-(2′-(3-fluorobenzyl)-7′-methoxy-1-(pyridin-2-ylmethyl)-1′,2′,3′,9′-tetrahydrospiro [piperidine-4,4′-pyrido[3,4-b]indol]-1′-yl)methanol] was 1.52 µM; that for `COc1ccc2c3c(n(C)c2c1)[C@@H](CO)N(Cc1ccccc1OC)CC31CCN(CC2CC2)CC1` [Compound 83, (S)-(1-(cyclopropylmethyl)-7′-methoxy-2′-(2-methoxybenzyl)-9'-methyl-1′,2′,3′,9′-tetrahydrospiro [piperidine-4,4′-pyrido[3,4-b]indol]-1′-yl) methanol] was 0.522 µM; that for `COc1cccc(S(=O)(=O)N2CCC3(CC2)CN[C@H](CO)c2[nH]c4cc(OC)ccc4c23)c1` [Compound 84, (S)-(7′-methoxy-1-((3-methoxyphenyl)sulfonyl)-1′,2′,3′,9′-tetrahydrospiro [piperidine-4,4′-pyrido[3,4-b]indol]-1′-yl)methanol] was 2.53 µM.
Regarding `COc1ccc2c3c(n(C)c2c1)[C@H](CO)N(CC1CCCCC1)CC31CCN(Cc2nccs2)CC1` [Compound 85, (R)-(2′-(cyclohexylmethyl)-7′-methoxy-9′-methyl-1-(thiazol-2-ylmethyl)-1′,2′,3′,9′-tetrahydrospiro [piperidine-4,4′-pyrido[3,4-b]indol]-1′-yl)methanol], the EC50 stood at 1.62 µM.
The value for `COc1ccc(NC(=O)N2CCC3(CC2)CN(C(=O)C2CCC2)[C@H](CO)c2c3c3ccc(OC)cc3n2C)cc1` [Compound 86, (S)-2′-(cyclobutanecarbonyl)-1′-(hydroxymethyl)-7′-methoxy-N-(4-methoxyphenyl)-9′-methyl-1′,2′,3′,9′-tetrahydrospiro [piperidine-4,4′-pyrido[3,4-b]indole]-1-carboxamide] was 0.096 µM.

These data come from US9428507B2, “Compounds for the treatment of malaria” (The Broad Institute, Inc., priority 2013, dated 2016).
